Reference: US20240082431A1, “METALLOHYDROPORPHYRINS FOR PHOTOACOUSTIC IMAGING” (NIRvana Sciences, Inc., priority 2021, published 2024)

Assay: Photoacoustic imaging of dyes in agar phantoms (VEVO LAZR 2100, PA scanning mode 680-900 nm)
Type: physicochemical
Conditions: agar phantom, 63 μM B107, 50 μM ICG in DMF
Protocol: Indocyanine Green (ICG), was obtained from Sigma-Aldrich (Catalogue No. I2633; Sigma-Aldrich Corp., St. Louis, Missouri, United States of America). The nickel bacteriochlorin B107 was prepared as described in Sun et al., 2013 and Chen et al, 2012. Each dye was dissolved in N,N-dimethylformamide (DMF) at the desired concentrations prior to the imaging experiments. Molds for preparing agar phantoms were typically 90 mm diameter glass Petri dishes.
A highly purified agar powder (Catalogue No. A7921; Sigma-Aldrich Corp., St. Louis, Missouri, United States of America) was dissolved in water (Reagent Grade, Type I) to a final concentration of 2.0% and heated to the melting temperature of 95° C. in a microwave oven. […] The bottle containing agar was held at 75-85° C. for 1-3 hours using a standard hot plate and a double boiler to avoid scorching (which causes a detectable increase in the absorption coefficient). This waiting period at an elevated temperature allows the slow release of air bubbles and produces an agar solution with negligible absorption and very low turbidity. […]
Photoacoustic imaging was performed using a VEVO® LAZR^2100 imaging system (VisualSonics, Inc., Toronto, Ontario, Canada) equipped with software version 1.7.2. […] The tubing and its associated image regions were isolated by ultrasound and PA signals for PA intensity quantitation. […]

Max (nm) of PAI signal (depth 3 mm): 790 nm | Max (nm) of PAI signal (depth 6 mm): 795 nm
Structure (SMILES): CC1(C)C(/C=C/C=C/C=C/C=C2\N(CCCCS(=O)(=O)O)c3ccc4ccccc4c3C2(C)C)=[N+](CCCCS(=O)(=O)[O-])c2ccc3ccccc3c21 [ICG, Indocyanine Green]
